# Assay results taken from US10131664B2 (Celgene Quanticel Research, Inc., priority 2013, dated 2018).
# Experiments:
# [1] = test system: THP-1 (AML) cells; test: LSD1 CD11b cellular assay (flow cytometry); type: cell-based; conditions: Homo sapiens, 96 h; CD11b expression in THP-1 (AML) cells, flow cytometry, 4 days incubation; read-out: Cellular IC50
# Summary of the method: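 THP-1 AML cells treated with serially diluted compound (0.2% DMSO final) for 4 days at 37 °C, 5% CO2. CD11b expression measured by flow cytometry with DAPI staining; IC50 derived from percent CD11b-positive cells versus inhibitor concentration.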
# [2] = biological target: full-length human LSD1 (Homo sapiens (Human), UniProt O60341); test: In vitro enzyme inhibition assay LSD-1 (TR-FRET); type: biochemical; conditions: TR-FRET, 0.1 nM LSD1, 50 nM H3K4me1-biotin peptide, 2 μM FAD, pH7.3; read-out: LSD1 IC50
# Protocol: This assay determines the ability of a test compound to inhibit LSD1 demethylase activity.
# The enzymatic assay of LSD1 activity is based on Time Resolved-Fluorescence Resonance Energy Transfer (TR-FRET) detection.
# The ability of the compounds disclosed herein to inhibit LSD1 activity was quantified and the respective IC50 value was determined. Table 5 provides the IC50 values of various substituted heterocyclic compounds disclosed herein.
SMILES,IC50 [1] [nM],IC50 [2] [nM]
"N#Cc1ccc(-c2nc(N3CCC(N)C(O)C3)ncc2-c2cnn(CC(F)(F)F)c2)cc1F (stereo not drawn) [Example 103, 4-[2-(4-amino-3-hydroxypiperidin-1-yl)-5-[1-(2,2,2-trifluoroethyl)pyrazol-4-yl]pyrimidin-4-yl]-2-fluorobenzonitrile]",100 to 1000,< 100
"Cn1nc2ccc(-c3cnc(N4CCC(N)CC4)nc3-c3ccc(C#N)c(F)c3)cc2c1N [Example 95, 4-[5-(3-amino-2-methylindazol-5-yl)-2-(4-aminopiperidin-1-yl)pyrimidin-4-yl]-2-fluorobenzonitrile]",< 100,< 100
"COc1nc(N2CCC(N)CC2)nc(-c2ccc(C#N)c(F)c2)c1-c1ccc2c(c1)nnn2C [Example 151, 4-[2-(4-aminopiperidin-1-yl)-6-methoxy-5-(1-methyl-1H-1,2,3-benzotriazol-5-yl)pyrimidin-4-yl]-2-fluorobenzonitrile]",< 100,< 100
"N#Cc1ccc(-c2nc(N3CCC(N)CC3)ncc2-c2cnn(CC(F)(F)F)c2)cc1F [Example 80, 4-[2-(4-aminopiperidin-1-yl)-5-[1-(2,2,2-trifluoroethyl)pyrazol-4-yl]pyrimidin-4-yl]-2-fluorobenzonitrile]",< 100,< 100

# More lines, now with the values ahead:
IC50 [1] [nM],IC50 [2] [nM],SMILES
< 100,< 100,"Cc1ccc(-c2cc(NCC3CCNC3)nn2-c2ccc(C#N)cc2)cc1 (stereo not drawn) [Example 43, 4-[5-(4-methylphenyl)-3-(pyrrolidin-3-ylmethylamino)pyrazol-1-yl]benzonitrile]"
< 100,< 100,"Cc1ccc(-c2cnc(N3C[C@H]4CNC[C@H]4C3)nc2-c2ccc(C#N)cc2)cc1 [Example 21, 4-{2-[(3aR,6aS)-octahydropyrrolo[3,4-c]pyrrol-2-yl]-5-(4-methylphenyl)pyrimidin-4-yl}benzonitrile]"
